Assay results reported in patent US9387200B2, “Isothiazole-pyridine derivatives as modulators of HIF (hypoxia inducible factor) activity” (FibroGen, Inc., priority 2008, dated 2016).

Biological target: T1, HIF-PH2 (Homo sapiens, UniProt Q9GZT9)
T1 construct: made in house; host or cells: insect Hi5 cells
Test: HIF-PH assay (14CO2 capture, peptide-dependent turnover)
Type: biochemical
Conditions: for inhibition at 200 µM: compound concentration 200 μM; for inhibition at 22.22 µM: compound concentration 22.22 μM
Text: Ketoglutaric acid α-[1-^14C]-sodium salt, alpha-ketoglutaric acid sodium salt, and HPLC purified peptide may be obtained from commercial sources, e.g., Perkin-Elmer (Wellesley Mass.), Sigma-Aldrich, and SynPep Corp. (Dublin Calif.), respectively. Peptides for use in the assay may be fragments of HIFα as described above or as disclosed in International Publication WO 2005/118836, incorporated by reference herein. For example, a HIF peptide for use in the HIF-PH assay is [methoxycoumarin]-DLDLEALAPYIPADDDFQL-amide. HIF-PH, e.g., HIF-PH2 (EGLN1), can be expressed in, e.g., insect Hi5 cells, and partially purified, e.g., through a SP ion exchange chromatography column. Enzyme activity is determined by capturing ^14CO2 using an assay described by Kivirikko and Myllyla (1982, Methods Enzymol. 82:245-304). Assay reactions contain 50 mM HEPES (pH 7.4), 100 μM α-ketoglutaric acid sodium salt, 0.30 μCi/mL ketoglutaric acid α-[1-^14C]-sodium salt, 40 μM FeSO4, 1 mM ascorbate, 1541.8 units/mL Catalase, with or without 50 μM peptide substrate and various concentrations of compound of the invention. Reactions are initiated by addition of HIF-PH enzyme.
The peptide-dependent percent turnover is calculated by subtracting percent turnover in the absence of peptide from percent turnover in the presence of substrate peptide. Percent inhibition and IC50 are calculated using peptide-dependent percent turnover at given inhibitor concentrations. Calculation of IC50 values for each inhibitor is conducted using GraFit software (Erithacus Software Ltd., Surrey UK).
Representative compounds of the invention were analyzed using the HIF-PH assay described above. Table I below presents enzyme inhibition data for exemplary compounds against HIF-PH2, a representative HIF prolyl hydroxylase enzyme. By inhibiting HIF prolyl hydroxylase enzymes, compounds of the invention stabilize HIFα, which then combines with HIFβ to form an active transcription factor that increases expression of various genes involved in numerous beneficial cellular processes.

T1 sequence (Q9GZT9 whole entry, species assumed): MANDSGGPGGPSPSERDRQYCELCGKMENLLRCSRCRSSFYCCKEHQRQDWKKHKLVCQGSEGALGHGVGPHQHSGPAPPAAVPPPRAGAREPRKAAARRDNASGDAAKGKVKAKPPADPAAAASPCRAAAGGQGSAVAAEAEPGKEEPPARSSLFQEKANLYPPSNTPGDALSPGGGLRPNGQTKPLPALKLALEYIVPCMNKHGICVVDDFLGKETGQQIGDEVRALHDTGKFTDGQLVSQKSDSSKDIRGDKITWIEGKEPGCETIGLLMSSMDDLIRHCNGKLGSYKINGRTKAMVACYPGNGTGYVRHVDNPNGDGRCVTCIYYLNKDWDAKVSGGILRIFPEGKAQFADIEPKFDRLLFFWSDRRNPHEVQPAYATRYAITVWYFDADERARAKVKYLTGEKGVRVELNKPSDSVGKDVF

Structure (SMILES)	inhibition at 200 µM [%]	inhibition at 22.22 µM [%]
O=C(O)CNC(=O)c1nc(-c2cccnc2)c2snc(-c3ccccc3)c2c1O [Example 3, [(4-Hydroxy-3-phenyl-7-pyridin-3-yl-isothiazolo[5,4-c]pyridine-5-carbonyl)-amino]-acetic acid]	100	
Cc1nsc2c(-c3cccnc3)nc(C(=O)NCC(=O)O)c(O)c12 [Example 37, [(4-Hydroxy-3-methyl-7-pyridin-3-yl-isothiazolo[5,4-c]pyridine-5-carbonyl)-amino]-acetic acid]	100	
O=C(O)CNC(=O)c1nc(-c2ccccc2)c2snc(-c3ccccc3F)c2c1O [Example 34, {[3-(2-Fluoro-phenyl)-4-hydroxy-7-phenyl-isothiazolo[5,4-c]pyridine-5-carbonyl]-amino}-acetic acid]	100	
O=C(O)CNC(=O)c1ncc2snc(-c3ccc(Cl)cc3)c2c1O [Example 16, {[3-(4-Chloro-phenyl)-4-hydroxy-isothiazolo[5,4-c]pyridine-5-carbonyl]-amino}-acetic acid]	99.9	
O=C(O)CNC(=O)c1nc(-c2ccccc2)c2snc(-c3ccccc3)c2c1O [Example 45, [(4-Hydroxy-3,7-diphenyl-isothiazolo[5,4-c]pyridine-5-carbonyl)-amino]-acetic acid]		97
Cc1nsc2c(O)c(C(=O)NCC(=O)O)ncc12 [Example 32, [(7-Hydroxy-3-methyl-isothiazolo[4,5-c]pyridine-6-carbonyl)-amino]-acetic acid]	100	
Cc1nsc2c(O)c(C(=O)NCC(=O)O)nc(-c3cnccn3)c12 [Example 41, [(7-Hydroxy-3-methyl-4-pyrazin-2-yl-isothiazolo[4,5-c]pyridine-6-carbonyl)-amino]-acetic acid]		98
CC(=O)c1nc(C(=O)NCC(=O)O)c(O)c2c(-c3ccc(Cl)cc3)nsc12 [Example 25, {[7-Acetyl-3-(4-chloro-phenyl)-4-hydroxy-isothiazolo[5,4-c]pyridine-5-carbonyl]-amino}-acetic acid]	100	
O=C(O)CNC(=O)c1nc(-c2cccc3ccccc23)c2snc(-c3ccc(Cl)cc3)c2c1O [Example 24, {[3-(4-Chloro-phenyl)-4-hydroxy-7-naphthalen-1-yl-isothiazolo[5,4-c]pyridine-5-carbonyl]-amino}-acetic acid]		96
Cc1nc(C(=O)NCC(=O)O)c(O)c2c(-c3ccccc3)nsc12 [Example 44, [(4-Hydroxy-7-methyl-3-phenyl-isothiazolo[5,4-c]pyridine-5-carbonyl)-amino]-acetic acid]		91
CCc1nc(C(=O)NCC(=O)O)c(O)c2c(C)nsc12 [Example 46, [(7-Ethyl-4-hydroxy-3-methyl-isothiazolo[5,4-c]pyridine-5-carbonyl)-amino]-acetic acid]	99	
O=C(O)CNC(=O)c1nc(Cc2ccccc2)c2snc(-c3ccc(Cl)cc3)c2c1O [Example 22, {[7-Benzyl-3-(4-chloro-phenyl)-4-hydroxy-isothiazolo[5,4-c]pyridine-5-carbonyl]-amino}-acetic acid]		97
N#Cc1ccc(-c2nc(C(=O)NCC(=O)O)c(O)c3c(-c4ccc(F)cc4)nsc23)cc1 [Example 11, {[7-(4-Cyano-phenyl)-3-(4-fluoro-phenyl)-4-hydroxy-isothiazolo[5,4-c]pyridine-5-carbonyl]-amino}-acetic acid]		91.5
Cc1nsc2c(-c3cnccn3)nc(C(=O)NCC(=O)O)c(O)c12 [Example 40, [(4-Hydroxy-3-methyl-7-pyrazin-2-yl-isothiazolo[5,4-c]pyridine-5-carbonyl)-amino]-acetic acid]		70
O=C(O)CNC(=O)c1nc(-c2ccccc2)c2snc(-c3ccc(Cl)cc3)c2c1O [Example 17, {[3-(4-Chloro-phenyl)-4-hydroxy-7-phenyl-isothiazolo[5,4-c]pyridine-5-carbonyl]-amino}-acetic acid]	98.7	
O=C(O)CNC(=O)c1nc(-c2ccncc2)c2snc(-c3ccccc3)c2c1O [Example 5, [(4-Hydroxy-3-phenyl-7-pyridin-4-yl-isothiazolo[5,4-c]pyridine-5-carbonyl)-amino]-acetic acid]	97.1	
COc1ccc(-c2nc(C(=O)NCC(=O)O)c(O)c3c(-c4ccc(Cl)cc4)nsc23)cn1 [Example 21, {[3-(4-Chloro-phenyl)-4-hydroxy-7-(6-methoxy-pyridin-3-yl)-isothiazolo[5,4-c]pyridine-5-carbonyl]-amino}-acetic acid]	77	
O=C(O)CNC(=O)c1ncc2snc(-c3ccccc3)c2c1O [Example 43, [(4-Hydroxy-3-phenyl-isothiazolo[5,4-c]pyridine-5-carbonyl)-amino]-acetic acid]		97

The next lines start with the values.

inhibition at 200 µM [%]	inhibition at 22.22 µM [%]	Structure (SMILES)
98		O=C(O)CNC(=O)c1nc(-c2ccc(F)cc2)c2snc(-c3ccccc3)c2c1O [Example 1, {[7-(4-Fluoro-phenyl)-4-hydroxy-3-phenyl-isothiazolo[5,4-c]pyridine-5-carbonyl]-amino}-acetic acid]
99.5		Cc1nc(C(=O)NCC(=O)O)c(O)c2c(-c3ccc(Cl)cc3)nsc12 [Example 15, {[3-(4-Chloro-phenyl)-4-hydroxy-7-methyl-isothiazolo[5,4-c]pyridine-5-carbonyl]-amino}-acetic acid]
54		C[C@@H](NC(=O)c1ncc2snc(-c3ccc(Cl)cc3)c2c1O)C(=O)O [Example 18, (R)-2-{[3-(4-Chloro-phenyl)-4-hydroxy-isothiazolo[5,4-c]pyridine-5-carbonyl]-amino}-propionic acid]
97.4		Cc1nc(C(=O)NCC(=O)O)c(O)c2c(-c3ccc(F)cc3)nsc12 [Example 9, {[3-(4-Fluoro-phenyl)-4-hydroxy-7-methyl-isothiazolo[5,4-c]pyridine-5-carbonyl]-amino}-acetic acid]
99		CCc1nc(C(=O)NCC(=O)O)c(O)c2snc(C)c12 [Example 47, [(4-Ethyl-7-hydroxy-3-methyl-isothiazolo[4,5-c]pyridine-6-carbonyl)-amino]-acetic acid]
97.9		COc1ccc(-c2nc(C(=O)NCC(=O)O)c(O)c3c(-c4ccccc4)nsc23)cc1 [Example 2, {[4-Hydroxy-7-(4-methoxy-phenyl)-3-phenyl-isothiazolo[5,4-c]pyridine-5-carbonyl]-amino}-acetic acid]
100		C#Cc1nc(C(=O)NCC(=O)O)c(O)c2c(-c3ccc(Cl)cc3)nsc12 [Example 14, {[3-(4-Chloro-phenyl)-7-ethynyl-4-hydroxy-isothiazolo[5,4-c]pyridine-5-carbonyl]-amino}-acetic acid]
	98	Cc1nsc2c(O)c(C(=O)NCC(=O)O)nc(-c3ccccc3)c12 [Example 31, [(7-Hydroxy-3-methyl-4-phenyl-isothiazolo[4,5-c]pyridine-6-carbonyl)-amino]-acetic acid]
	98.3	N#Cc1nc(C(=O)NCC(=O)O)c(O)c2c(-c3ccc(F)cc3)nsc12 [Example 8, {[7-Cyano-3-(4-fluoro-phenyl)-4-hydroxy-isothiazolo[5,4-c]pyridine-5-carbonyl]-amino}-acetic acid]
